From patent publication US10071981B2, “Method of priming plants against abiotic stress factors” (Research Foundation of The City University of New York, priority 2014, dated 2018)
“Also recorded” adds a separate entry of the source.

Assays:
Assay type in all cases: in vivo
[1] = system: Medicago truncatula plants; test: Hydrogen peroxide content in leaves of drought-stressed plants; settings: 100 μM foliar spraying
Method: Mature (40 d) Medicago truncatula ecotype Jemalong A17 plants were used for the purposes of this study. These were grown in soil medium under controlled, optimal growth conditions and were then subjected to drought stress. Drought was imposed by withholding watering for 9 d (for detailed growth and stress conditions see Filippou et al., 2011). Both NOSH and NOSH-aspirin were applied at 100 μM concentration by foliar spraying at the start of stress imposition. The hybrid donors were diluted in 70% (v/v) and 30% (v/v) methanol, 20% (v/v) acetone or 20% (v/v) DMSO. Cellular damage was evaluated by lipid peroxidation levels (TBARS content) and hydrogen peroxide (H2O2) content as previously described (Filippou et al., 2011; Tanou et al., 2012), while osmoprotective capacity was evaluated by proline content (ninhydrin assay) as previously described (Antoniou et al., 2013). Real-time RT-PCR gene expression analysis was carried out using a Biorad IQ5 thermocycler as previously described (Filippou et al., 2013b). Relative quantification of gene expression and statistical analysis of all qRT-PCR data (pairwise fixed reallocation randomization test) were performed using the REST software according to Pfaffl et al. (2002). The actin 11 gene was used as a housekeeping reference gene. […]

[2] = system: Medicago truncatula plants; test: Real-time RT-PCR gene expression in leaves of drought-stressed plants; settings: pre-treated and stressed vs stressed alone plants; 30% MetOH; FIG. 7
Medicago sativa plants [3] = test: Antioxidant enzyme activities (SOD and CAT) in leaves of drought-stressed plants; settings: 7 d, after rewatering, vs stressed-alone plants; for SOD enzymatic activity: FIG. 16A; for CAT enzymatic activity: FIG. 16B
Method: (§1) Mature (42 d) Medicago sativa plants were used for the purposes of this study. These were grown in soil medium under controlled, optimal growth conditions and were then subjected to drought stress. Drought was imposed by withholding watering until drought symptoms (loss of turgour, wilting, chlorosis) were observed (6 d after stress imposition). Samples were then re-watered to observe recovery potential after 1 day (7 d). Both NOSH and NOSH-aspirin were applied at 100 μM concentration by foliar spraying at the start of stress imposition. The hybrid donors were diluted in 30% (v/v) methanol. Physiological parameters (stomatal conductance and chlorophyll fluorescence) were measured with a DT-Porometer AP4 (Delta-TDevices, Cambridge, UK) and an OptiSci OS-30p chlorophyll fluorometer (Opti-Sciences, Hudson, N.H., USA) respectively (Filippou et al., 2013). Chlorophyll fluorescence (Fv/Fm) of leaves represents the maximum photochemical efficiency of photosystem II (PSII). Cellular damage was evaluated by lipid peroxidation levels (TBARS content), nitric oxide (NO) content (nitrosative stress) and hydrogen peroxide (H2O2) content (oxidative stress) as previously described (Filippou et al., 2011; Tanou et al., 2012), while osmoprotective capacity was evaluated by proline content (ninhydrin assay) as previously described (Antoniou et al., 2013). Antioxidant enzyme activities (SOD and CAT) were measured as previously described (Filippou et al., 2014). Real-time RT-PCR gene expression analysis was carried out using a Biorad IQ5 thermocycler as previously described (Filippou et al., 2013). Relative quantification of gene expression and statistical analysis of all qRT-PCR data (pairwise fixed reallocation randomization test) were performed using the REST software according to Pfaffl et al. (2002). The actin 11 gene was used as a housekeeping reference gene. All analyses were carried out using three independent biological pools of samples as replicates (with a minimum of fifteen independent plants per pooled sample). The experimental setup is shown schematically in FIG. 8.
The enzymatic activity of two key antioxidants (SOD and CAT) were evaluated. SOD dismutates superoxide radicals to hydrogen peroxide, while CAT directly scavenges hydrogen peroxide. Both enzymes appear to be regulated in response to stress and priming agent pretreatment in a differential manner (FIG. 16). […] In any case, it should be noted that the cellular enzymatic antioxidant battery linked with ROS scavenging is very complex involving several other components (e.g. APX), isoforms in several compartments (e.g. peroxisomes, chloroplasts, mitochondria), as well as non-enzymatic antioxidants (e.g. ascorbic acid, tocopherols and glutathione).

Medicago sativa plants [4] = test: Nitric oxide content in leaves of drought-stressed plants; settings: 100 μM; vs drought-stressed samples; FIG. 14B
Method: as §1, with “Antioxidant enzyme activities (SOD and CAT) were measured as previously described (Filippou et al., 2014). Real-time RT-PCR gene expression analysis was carried out using a Biorad IQ5 thermocycler as previously described (Filippou et al., 2013). Relative quantification of gene expression and statistical analysis of all qRT-PCR data (pairwise fixed reallocation randomization test) were performed using the REST software according to Pfaffl et al. (2002). The actin 11 gene was used as a housekeeping reference gene. All analyses were carried out using three independent biological pools of samples as replicates (with a minimum of fifteen independent plants per pooled sample). The experimental setup is shown schematically in FIG. 8.” left out

Medicago sativa plants [5] = test: Real-time RT-PCR gene expression in leaves of drought-stressed plants; settings: FIG. 17; for relative gene expression of genes examined (NR, GST17, Cu/ZnSOD, FeSOD, APX, PIP): after rewatering, vs drought-stressed alone plants; for SOD isoforms (Cu/ZnSOD, FeSOD) relative gene expression: pretreated and stressed vs stressed alone plants
Method: as §1
Finally, qRT-PCR gene expression analysis was carried out (FIG. 17) for key defense-related genes, including major enzymatic antioxidants (GST17, Cu/ZnSOD, FeSOD, cAPX) linked with ROS scavenging, as well as genes involved in NO biosynthesis (NR). In addition, an aquaporin (PIP) was also examined which is linked with response to water deficit and transport.

Row | SMILES | H2O2 levels ([1]; 30% (v/v) MetOH, vs drought-stress samples, FIG. 5) | H2O2 content ([1]; 70% (v/v) MetOH, drought 9 d, FIG. 4) | FeSOD relative gene expression [2] | P5CR relative gene expression [2] | P5CS relative gene expression [2] | cAPX relative gene expression [2] | SOD enzymatic activity (Medicago sativa plants [3]) | CAT enzymatic activity (Medicago sativa plants [3]) | nitric oxide (NO) content (Medicago sativa plants [4]) | relative gene expression of genes examined (NR, GST17, Cu/ZnSOD, FeSOD, APX, PIP) (Medicago sativa plants [5]) | SOD isoforms (Cu/ZnSOD, FeSOD) relative gene expression (Medicago sativa plants [5])
1 | O=C(CCCO[N+](=O)[O-])Oc1ccccc1C(=O)Oc1ccc(-c2cc(=S)ss2)cc1 [NOSH-A] | significantly lower H2O2 levels | significantly reversed | significant induction | significant induction | significant induction | significant suppression | significantly induced | increased CAT enzymatic activity; also recorded: significantly induced | significantly reversed | general suppression of most genes examined | significant transcriptional regulation (induction)
2 | O=C(CCCO[N+](=O)[O-])Oc1ccc(-c2cc(=S)ss2)cc1 [NOSH] |  |  |  |  |  |  | significantly induced | increased CAT enzymatic activity; also recorded: significantly induced | significantly reversed | general suppression of most genes examined | significant transcriptional regulation (induction)
